In one series the target is JAK2 (JH1 domain) (Homo sapiens (Human), UniProt O60674). In words: JAK2 JH1 domain binding assay (KINOMEscan).
Another series addresses JAK1 (JH2 domain) (Homo sapiens (Human), UniProt P23458). In words: JAK1 JH2 domain binding assay (KINOMEscan).
Series [1] concerns INFα induced pSTAT5 in human PBMC. The series is described as follows: INFα induced pSTAT5 in human PBMC. As to conditions: human PBMC, INFα 5000 units/ml; read-out: p-STAT5 IC50. The series is classed as cell-based.
A further series deals with TYK2 (JH2 domain) (Homo sapiens (Human), UniProt P29597). The series is described as follows: TYK2 JH2 domain binding assay (DiscoverX KINOMEscan). As to conditions: 11-point 3-fold dilution, duplicate.
Sequence of TYK2 (JH2 domain) (P29597 589-875): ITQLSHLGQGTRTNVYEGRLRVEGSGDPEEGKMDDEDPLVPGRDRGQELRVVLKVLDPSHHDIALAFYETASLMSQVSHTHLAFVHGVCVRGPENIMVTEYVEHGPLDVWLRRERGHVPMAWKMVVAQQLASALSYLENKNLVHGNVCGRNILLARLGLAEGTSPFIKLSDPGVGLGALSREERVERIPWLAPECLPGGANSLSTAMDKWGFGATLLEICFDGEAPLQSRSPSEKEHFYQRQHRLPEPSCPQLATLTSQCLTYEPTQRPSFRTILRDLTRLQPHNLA
Series [2] relates to IL12-induced p-STAT4 in human PBMC. The series is described as follows: IL-12 induced pSTAT4 in human PBMC. The series is classed as cell-based. As to conditions: human PBMC, IL-12 10 ng/ml; read-out: p-STAT4 IC50.
Description: Cells were seeded in a round bottom 96-well plate at the concentration of 200,000 cells/well. A 10-point dilution series of test compound (top dose 10 uM, 1:5 dilution) was added to the well using the liquid dispenser (Tecan D300e) and incubated for 1 hour at 37 C. Then human IL-12 recombinant protein (R&D Systems) was added to the well at the final concentration of 10 ng/ml and incubated for 15 minutes at 37 C. Cell lysates were prepared and analyzed by Phospho STAT4 (Tyr693) Kit (Meso Scale Discovery) following manufacturer's protocol.
The subject of series [3] is INFα induced pSTAT3 in human PBMC. The series is described as follows: INFα induced pSTAT3 in human PBMC. The series is classed as cell-based. To be noted: human PBMC, INFα 5000 units/ml; read-out: p-STAT3 IC50. How it is done: (§1) Fresh Human PBMCs were resuspended in RPMI 1640 medium with 10% FBS. Cells were seeded in a round bottom 96-well plate at the concentration of 200,000 cells/well. A 10-point dilution series of test compound (top dose 10 uM, 1:5 dilution) was added to the well using the liquid dispenser (Tecan D300e) and incubated for 1 hour at 37 C. Then human INFα recombinant protein (R&D Systems) was added to the well at the final concentration of 5000 units/ml and incubated for 15 minutes at 37 C. Cell lysates were prepared and analyzed by Phospho STAT3 (Tyr705) cellular kit (Cisbio) or Phospho STAT5 (Tyr693) Kit (Meso Scale Discovery) following manufacturer's protocol.
For calculation of the inhibition rate, the relative pSTAT signal of each well=pSTAT signal of each well−the average pSTAT signal of baseline. The inhibition %=(the average pSTAT signal of INFα treatment wells−the relative of pSTAT signal in each compound containing well)/the average pSTAT signal of INFα treatment wells*100%
The curve was plotted as the inhibition % (y-axis) vs. compounds concentration (x-axis) and was fitted with log(inhibitor) vs. normalized response—Variable slope by GraphPad Prism7.0.

For series [4], the system named is IL-2-induced pSTAT5 in human PBMC. The series is described as follows: IL-2-induced pSTAT5 in human PBMC. The series is classed as cell-based. As to conditions: IL-2 20 ng/ml. The method, then: as §1, with “IL-12” for “INFα”, “10 ng/ml” for “5000 units/ml”, “STAT4” for “STAT3 (Tyr705) cellular kit (Cisbio) or Phospho STAT5”
(§2) For calculation of the inhibition rate, the relative pSTAT4 signal of each well=pSTAT4 signal of each well−the average pSTAT4 signal of baseline. The inhibition %=(the average pSTAT4 signal of IL-12 treatment wells−the relative of pSTAT4 signal in each compound containing well)/the average pSTAT4 signal of IL-12 treatment wells*100%
(§3) The curve was plotted as the inhibition % (y-axis) vs. compounds concentration (x-axis) and was fitted with log(inhibitor) vs. normalized response—Variable slope by GraphPad Prism7.0. Control is BMS-986165:
(§4) Similar to the method for IL-12 induced pSTAT4 in human PBMC described above, these assays were performed to check if test compounds have cross-activity to JAK1. JAK2 and JAK3 pathways in human PBMC. The procedure is as described with change of stimuli to 10 ng/ml of GM-CSF or 20 ng/ml of IL-2.

Series [5] concerns GM-CSF-induced pSTAT5 in human PBMC. In words: GM-CSF-induced pSTAT5 in human PBMC. As to conditions: GM-CSF 10 ng/ml. The series is classed as cell-based. How it is done: as §1, with “IL-12” for “INFα”, “10 ng/ml” for “5000 units/ml”, “STAT4” for “STAT3 (Tyr705) cellular kit (Cisbio) or Phospho STAT5”
as §2, §3, §4

The nature of series [6]: Pharmacokinetic study in cynomolgus monkeys. The series is classed as in vivo. To be noted: cynomolgus monkey, plasma, iv, I.V. (1 mg/kg). The method, then:
The pharmacokinetics of test compounds were evaluated in male C57BL/6 mice, Sprague Dawley rats, Beagle dogs, and cynomolgus monkeys when administered via oral gavage and IV injection. The animals were fasted overnight before administration. Plasma samples were collected predose and at 0.5, 1, 3, 6, 9, 12, and 24 hours postdose. The samples were analyzed by LC/MS/MS and the concentration of test compound at each timepoint was determined by linear regression. Pharmacokinetic parameters were calculated from the plasma concentrations using Pheonix WinNonlin.

The mark [7] stands for this setting: KINOMEscan, read-out: JAK1 (JH2 domain) binding Kd.

Read-outs that look alike come from different tables or passages of the source.

Sequence of JAK2 (JH1 domain) (O60674 849-1124): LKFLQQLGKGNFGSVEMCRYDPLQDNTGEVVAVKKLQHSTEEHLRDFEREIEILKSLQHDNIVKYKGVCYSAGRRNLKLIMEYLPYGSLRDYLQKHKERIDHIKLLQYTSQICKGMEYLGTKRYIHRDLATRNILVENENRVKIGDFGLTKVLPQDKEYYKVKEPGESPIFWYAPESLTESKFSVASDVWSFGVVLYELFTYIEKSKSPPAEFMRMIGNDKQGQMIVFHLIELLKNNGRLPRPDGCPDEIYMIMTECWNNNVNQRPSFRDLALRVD
Sequence of JAK1 (JH2 domain) (P23458 583-855): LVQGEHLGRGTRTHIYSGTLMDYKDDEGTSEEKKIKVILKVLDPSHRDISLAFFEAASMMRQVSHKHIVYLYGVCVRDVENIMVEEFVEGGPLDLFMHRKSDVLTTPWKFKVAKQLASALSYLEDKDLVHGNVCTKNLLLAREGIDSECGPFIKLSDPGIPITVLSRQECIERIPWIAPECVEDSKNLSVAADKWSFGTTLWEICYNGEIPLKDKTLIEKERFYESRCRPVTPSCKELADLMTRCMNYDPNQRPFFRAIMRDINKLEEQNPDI
Description for JAK2 (JH1 domain): The assay is performed by combining three components: DNA-tagged kinase; immobilized ligand; and a test compound. The ability of the test compound to compete with the immobilized ligand is measured via quantitative PCR of the DNA tag.
The liganded beads were blocked with excess biotin and washed with blocking buffer (SeaBlock (Pierce), 1% BSA, 0.05% Tween 20, 1 mM DTT) to remove unbound ligand and to reduce non-specific binding. […] Test compounds were prepared as 111× stocks in 100% DMSO. All test compounds were shipped to DiscoverX in DMSO with concentration of 10 mM. Kds were determined using an 11-point 3-fold compound dilution series with three DMSO control points. Each compound was tested in duplicate. […] The compounds were then diluted directly into the assays such that the final concentration of DMSO was 0.9%. All reactions performed in polypropylene 384-well plate. Each was a final volume of 0.02 ml. […] The kinase concentration in the eluates was measured by qPCR.
The amount of kinase measured by qPCR (Signal; y-axis) is plotted against the corresponding compound concentration in nM in log 10 scale (x-axis). Binding constants (Kds) were calculated with a standard dose-response curve using the Hill equation:
Similar to the method for TYK2 JH2 binding described above, JAK1 JH2 and JAK2 JH1 domain binding assay was performed using DiscoverX's KINOMEscan™, but with change of kinase domain.

As usually defined, the Kd is the free concentration of one partner at which half of the binding sites on the other are occupied at equilibrium, for simple one-to-one binding. In general, IC50 refers to the concentration that inhibits the measured activity by half. For the molecule `[2H]C([2H])([2H])NC(=O)c1nnc(NC(=O)N2CC(C)(C)C2)cc1Nc1cccc(-c2ncn(C)n2)c1OC` [Example 38], the Kd at JAK2 (JH1 domain) is 1000 to 10000 nM; at JAK1 (JH2 domain) (setting [7]), under 100 nM; on TYK2 (JH2 domain), at most 1 nM. In series [1], the IC50 is under 100 nM.
`[2H]C([2H])([2H])NC(=O)c1nnc(N2CCN(CC3CC3)C2=O)cc1Nc1cccc(-c2ncn(C)n2)c1OC` [Example 68]: the IC50 in series [2] and in series [3] was under 100 nM each time. The Kd at TYK2 (JH2 domain) was at most 1 nM.
For `[2H]C([2H])([2H])NC(=O)c1nnc(N2CCN(CC#N)C2=O)cc1Nc1cccc(-c2ncn(C)n2)c1OC` [Example 69], the IC50 in series [2] and in series [3] was under 100 nM throughout. This molecule returned a Kd on TYK2 (JH2 domain) of at most 1 nM.
Regarding `[2H]C([2H])([2H])NC(=O)c1nnc(N2CCN(CC3CCOC3)C2=O)cc1Nc1cccc(-c2ncn(C)n2)c1OC` (stereo not drawn) [Example 71], the IC50 in series [2] and in series [3] was 100 to 1000 nM throughout. The same molecule displayed a Kd at TYK2 (JH2 domain) of at most 1 nM.
Take `[2H]C([2H])([2H])NC(=O)c1nnc(N2CCN(CC3(C)COC3)C2=O)cc1Nc1cccc(-c2ncn(C)n2)c1OC` [Example 72]: the IC50 was under 100 nM in [2] and 100 to 1000 nM in series [3]. On TYK2 (JH2 domain), this molecule came in with a dissociation constant (Kd) of at most 1 nM.
The like results for `[2H]C([2H])([2H])NC(=O)c1nnc(N2CCN(CC3CCCO3)C2=O)cc1Nc1cccc(-c2ncn(C)n2)c1OC` (stereo not drawn) [Example 74] were, in that order, under 100 nM, under 100 nM and at most 1 nM.
On the same counts, the results for `[2H]C([2H])([2H])NC(=O)c1nnc(N2CCN(c3ccccc3)C2=O)cc1Nc1cccc(-c2ncn(C)n2)c1OC` [Example 77] are 100 to 1000 nM, 1000 to 10000 nM and 1 to 5 nM.
For `[2H]C([2H])([2H])NC(=O)c1nnc(N2CCN(C3COC3)C2=O)cc1Nc1cccc(-c2ncn(C)n2)c1OC` [Example 79], the IC50 in [2] and in series [3] was 100 to 1000 nM each time. On TYK2 (JH2 domain), this molecule had a Kd of at most 1 nM.
As to `[2H]C([2H])([2H])NC(=O)c1nnc(N2CCN(C3CCOC3)C2=O)cc1Nc1cccc(-c2ncn(C)n2)c1OC` (stereo not drawn) [Example 80], the IC50 in series [2] and in series [3] was under 100 nM throughout. In addition, the Kd on TYK2 (JH2 domain) is at most 1 nM.
Turning to `[2H]C([2H])([2H])NC(=O)c1nnc(N2CCN(C(C)C3CC3)C2=O)cc1Nc1cccc(-c2ncn(C)n2)c1OC` (stereo not drawn) [Example 82], the IC50 in [2] and in series [3] was under 100 nM throughout. On TYK2 (JH2 domain), this molecule gave a Kd of at most 1 nM.
Turning to `[2H]C([2H])([2H])NC(=O)c1nnc(N2CCN(C(C)C#C)C2=O)cc1Nc1cccc(-c2ncn(C)n2)c1OC` (stereo not drawn) [Example 84], the concentration for half-maximal inhibition (IC50) in series [2] and in [3] was under 100 nM in each case. The molecule also showed a Kd on TYK2 (JH2 domain) of at most 1 nM.
In the case of `[2H]C([2H])([2H])NC(=O)c1nnc(N2CCN(C3CCOCC3)C2=O)cc1Nc1cccc(-c2ncn(C)n2)c1OC` [Example 86], the IC50 in series [2] was under 100 nM; in series [3], 100 to 1000 nM. The molecule also had a Kd at TYK2 (JH2 domain) of at most 1 nM.
On the same counts, the results for `[2H]C([2H])([2H])NC(=O)c1nnc(N2CCN(C(C3CC3)C(F)(F)F)C2=O)cc1Nc1cccc(-c2ncn(C)n2)c1OC` (stereo not drawn) [Example 87] are under 100 nM, 100 to 1000 nM and at most 1 nM.
`[2H]C([2H])([2H])NC(=O)c1nnc(N2CCN(C(C)C)C2=O)cc1Nc1nccc(-c2ncn(C)n2)c1OC` [Example 147, 6-(3-isopropyl-2-oxo-imidazolidin-1-yl)-4-[[3-methoxy-4-(1-methyl-1,2,4-triazol-3-yl)-2-pyridyl]amino]-N-(trideuteriomethyl)pyridazine-3-carboxamide]: the Kd was over 10000 nM at JAK2 (JH1 domain), under 100 nM on JAK1 (JH2 domain) (setting [7]) and at most 1 nM at TYK2 (JH2 domain). Further, the IC50 in series [1] is under 100 nM.
For the molecule `CC(C)(O)c1ccc(Nc2cc(Nc3ncccc3S(C)(=O)=O)c(C(=O)C3CC3)cn2)nc1F` [Example 159], the figures for the Kd at JAK2 (JH1 domain), on JAK1 (JH2 domain) (setting [7]) and at TYK2 (JH2 domain) were 1000 to 10000 nM, under 100 nM and at most 1 nM, respectively. Further, the IC50 in [1] is under 100 nM.
In the case of `CCC(=O)c1cnc(NC(=O)C2CC2)cc1Nc1nccc(-c2ncn(C)n2)c1OC` [Example 163], the results for the Kd at JAK2 (JH1 domain), on JAK1 (JH2 domain) and on TYK2 (JH2 domain) were 100 to 1000 nM, under 100 nM and at most 1 nM, respectively. Further, the IC50 in series [1] is under 100 nM.
`COc1c(-c2ncn(C)n2)ccnc1Nc1cc(NC(=O)C2CC2)ncc1C(=O)C1CC1` [Example 166]: the Kd was 1000 to 10000 nM on JAK2 (JH1 domain) and under 100 nM at JAK1 (JH2 domain) (setting [7]). The IC50 in [1] was under 100 nM.
The term AUC denotes the area under the concentration-time curve, a measure of exposure. Read a low AUC as less exposure. One may read the clearance as the volume of plasma or blood freed of the substance per unit of time. By half-life is commonly meant how long it takes for the measured level to halve. Lower therefore signals rapid decline. What is called Cmax is the peak of the concentration-time curve. `[2H]C([2H])([2H])CC(=O)c1cnc(Nc2ccc(C(O)(C([2H])([2H])[2H])C([2H])([2H])[2H])c(F)n2)cc1Nc1ncccc1S(C)(=O)=O` [Example 203]: in series [4], the IC50 lay within 100 to 1000 nM. Moreover, the IC50 in [5] is 1000 to 10000 nM. In [6], this molecule showed an AUC of 595 ± 48 ng·h/mL, a clearance of 27.6 ± 1.9 mL/min/kg and a half-life of 57.1 ± 13.2 min. In addition, the Cmax in series [6] (read-out: C0 or Cmax (C0)) worked out at 787 ± 61 ng/mL. Moreover, in [6] (read-out: Vdss), the Vd came to 0.931 ± 0.01 L/kg. The IC50 in [1] was under 100 nM.

The values above are taken from patent US11053219B2, “Substituted pyridines as TYK2 inhibitors” (FronThera U.S. Pharmaceuticals LLC, priority 2018, dated 2021).
